From patent US9962350B2, “Agent for improving normal development rate of fertilized eggs” (SBI Pharmaceuticals Co., Ltd., priority 2014, dated 2018)

Legend:
[1] = test system: C57BL/6J fertilized eggs (natural mating); experiment: Low-temperature in vitro culture of natural mating-derived fertilized eggs in KSOM or mWM with ALA; embryo development; type: cell-based, mouse; conditions: 35° C.
Procedure: According to a routine method of controlled ovarian hyperstimulation, 5 U (units) of equine chorionic gonadotropin (serum gonadotropin) (ASKA Pharmaceutical Co., Ltd.) were intraperitoneally administered to each female mouse of the C57BL/6J lineage (4 weeks old to 6 weeks old). 45 to 48 hours later, 5 U (units) of gonadotropin (human chorionic gonadotropin) (ASKA Pharmaceutical Co., Ltd.) were intraperitoneally administered thereto. Immediately after the administration of gonadotropin, each female mouse was mated with each male mouse of the C57BL/6J lineage. In the next morning, the oviducts were recovered into physiological saline (0.9% (w/v) NaCl) from the female mice that were able to be confirmed to have a vaginal plug. The oviducts were perfused with KSOM or mWM (both were purchased from ARK Resource Co., Ltd., http://www.ark-resource.co.jp/seihin/cryopreservation-liquid/) containing hyaluronidase (approximately 300 μg/ml, Sigma-Aldrich Corp.). After removal of cumulus cells from the obtained fertilized eggs, the fertilized eggs were recovered. In order to remove hyaluronidase, the fertilized eggs were washed with each medium (KSOM or mWM) and maintained in KSOM or mWM (ARK Resource Co., Ltd.) in an incubator of 37° C. and 5% CO2 until the fertilized eggs were recovered from all of the female mice. These two media used are typical media for use in mouse embryo culture. KSOM is a typical low glucose-containing medium, whereas mWM is a high glucose-containing medium.
20 to 50 of the recovered fertilized eggs were transferred into a drop (covered with mineral oil (Sigma-Aldrich Corp.)) consisting of 100 μl of ALA-unsupplemented or ALA-supplemented (1 μM or 3 μM) medium (KSOM or mWM). Subsequently, the fertilized eggs were cultured under two culture conditions: a condition of 37° C. and 5% CO2 and a condition of 35° C. and 5% CO2. The number of 2-cell eggs was counted 24 hours after the fertilized egg harvest, and the number of blastocysts was counted 96 hours thereafter. The development rate was evaluated in the same way as in Example 1. The results about KSOM are shown in Tables 8 to 10 and FIGS. 5 and 6. The results about mWM are shown in Tables 11 to 13 and FIGS. 7 and 8.

[2] = test system: fertilized eggs obtained by the mating between female mice of the BDF2 lineage and male mice of the BDF1 lineage; experiment: In vitro culture of natural mating-derived fertilized eggs (BDF2 females x BDF1 males) with ALA; embryo development; type: cell-based, mouse; conditions: 1 μM ALA
Procedure: Aside therefrom, a drop of 100 μL of M16 medium covered with mineral oil (manufactured by Sigma-Aldrich Corp.) and supplemented with ALA hydrochloride (manufactured by SBI Pharmaceuticals Co., Ltd.) at a final concentration of 0 μM (control), 0.1 μM, 0.5 μM, or 1 μM was prepared in a 35 mm Petri dish and left standing at 37° C. in a CO2 incubator. 29 or 30 of the cumulus cell-free fertilized eggs were transferred to the resulting drop and cultured in vitro at 37° C. in a CO2 incubator.
After a lapse of 24 hours, 48 hours, 72 hours, and 96 hours from the start of the in vitro culture (0 hours) in the drop, the developmental stage of each embryo was determined by observation under a stereoscopic microscope, and the number of embryos whose development progressed normally and change in development rate were calculated. Specifically, the number of 2-cell eggs 24 hours after the start of the culture, the number of 3-cell, 4-cell, and 8-cell eggs 48 hours thereafter, the number of morulae and blastocysts 72 hours thereafter, and the number of blastocysts 96 hours thereafter were counted as embryos whose development progressed normally at each stage. The development rate with the number of fertilized eggs (0 hours) defined as 100% is shown in Table 3 and the graph of FIG. 1. For the evaluation of the development rate, the percentage of the number of embryos whose development progressed normally 24 hours, 48 hours, 72 hours, and 96 hours after the start of the culture was calculated with the number of fertilized eggs (0 hours) defined as 100%, and used as a normal development rate. Because of the natural mating, the number of recovered fertilized eggs (0 hours) includes unfertilized eggs to some extent, and there is the possibility that the content of unfertilized eggs varies accidentally among fertilized eggs (0 hours) populations distributed to the respective condition groups even if the fertilized eggs (0 hours) populations have been recovered in the same experiment. The development rate calculated with the number of 2-cell embryos 24 hours postfertilization defined as 100% was calculated in order to eliminate the influence of the content of unfertilized eggs that varies accidentally among the respective condition groups. In short, in order to calculate the development rate on the basis of the number of eggs that reliably started embryo development, the development rate with the number of 2-cell embryos 24 hours postfertilization defined as 100% is shown in Table 4 and the graph of FIG. 2. The results of each test group were statistically analyzed by the square test (chi-square test) with a statistically significant difference of p<0.01 (**) and p<0.05 (*).
The study was conducted in the same way as in Example 1 except that: the female mice used to harvest fertilized eggs were female mice of the BDF2 lineage (5 to 24 weeks old, body weight: 16 to 25 g) obtained by the mating between females and males of the BDF1 lineage (F1 of C57BL/6 females×DBA/2 males); the male mice used for mating were male mice of the BDF1 lineage (F1 of C57BL/6 females×DBA/2 males) (46 to 52 weeks old, body weight: 30 to 45 g); and 1 μM ALA was studied. The results are shown in Tables 5 to 7 below and FIGS. 3 and 4.

[3] = 1 μM ALA, mWM, 96 hr (blastocysts)
[4] = 3 μM ALA, mWM, 96 hr (blastocysts)

NCC(=O)CCC(=O)O [ALA, 5-aminolevulinic acid]
The number of developed embryos in KSOM ([1]; 1 μM ALA, 24 hr): 39
development rate with the number of fertilized eggs (0 hr) in KSOM defined as 100% ([1]; 1 μM ALA, 24 hr): 67%
The number of developed embryos in KSOM ([1]; 1 μM ALA, 48 hr): 23
development rate with the number of 2-cell embryos 24 hours postfertilization in KSOM defined as 100% ([1]; 1 μM ALA, 48 hr): 59%
development rate with the number of fertilized eggs (0 hr) in KSOM defined as 100% ([1]; 1 μM ALA, 48 hr): 40%
The number of developed embryos in KSOM ([1]; 1 μM ALA, 96 hr): 6
development rate with the number of 2-cell embryos 24 hours postfertilization in KSOM defined as 100% ([1]; 1 μM ALA, 96 hr (blastocysts)): 15%
development rate with the number of fertilized eggs (0 hr) in KSOM defined as 100% ([1]; 1 μM ALA, 96 hr (blastocysts)): 10%
The number of developed embryos in mWM ([1]; 1 μM ALA, mWM, 24 hr): 59
development rate with the number of fertilized eggs (0 hr) in mWM defined as 100% ([1]; 1 μM ALA, mWM, 24 hr): 50%
The number of developed embryos in mWM ([1]; 1 μM ALA, mWM, 48 hr): 48
development rate with the number of 2-cell embryos 24 hours postfertilization in mWM defined as 100% ([1]; 1 μM ALA, mWM, 48 hr): 81%
development rate with the number of fertilized eggs (0 hr) in mWM defined as 100% ([1]; 1 μM ALA, mWM, 48 hr): 39%
elevation of development rate to blastocysts vs control (in words) ([1]; 1 μM ALA, mWM, 96 hours (Tables 12 and 13)): no significant elevation
The number of developed embryos in mWM ([1]; 1 μM ALA, mWM, 96 hr): 27
development rate with the number of 2-cell embryos 24 hours postfertilization in mWM defined as 100% [1, 3]: 46%
development rate with the number of fertilized eggs (0 hr) in mWM defined as 100% [1, 3]: 22%
The number of developed embryos in mWM ([1]; 3 μM ALA, mWM, 24 hr): 62
development rate with the number of fertilized eggs (0 hr) in mWM defined as 100% ([1]; 3 μM ALA, mWM, 24 hr): 50%
The number of developed embryos in mWM ([1]; 3 μM ALA, mWM, 48 hr): 62
development rate with the number of 2-cell embryos 24 hours postfertilization in mWM defined as 100% ([1]; 3 μM ALA, mWM, 48 hr): 100%
development rate with the number of fertilized eggs (0 hr) in mWM defined as 100% ([1]; 3 μM ALA, mWM, 48 hr): 50%
The number of developed embryos in mWM ([1]; 3 μM ALA, mWM, 96 hr): 40
development rate with the number of 2-cell embryos 24 hours postfertilization in mWM defined as 100% [1, 4]: 65%
development rate with the number of fertilized eggs (0 hr) in mWM defined as 100% [1, 4]: 32%
The number of developed embryos ([2]; 24 hr): 41
development rate with the number of fertilized eggs (0 hr) defined as 100% ([2]; 24 hr): 82%
The number of developed embryos ([2]; 48 hr): 41
development rate with the number of 2-cell embryos 24 hours postfertilization defined as 100% ([2]; 48 hr): 100%
development rate with the number of fertilized eggs (0 hr) defined as 100% ([2]; 48 hr): 82%
The number of developed embryos ([2]; 72 hr): 40
development rate with the number of fertilized eggs (0 hr) defined as 100% ([2]; 72 hr): 80%
The number of developed embryos ([2]; 96 hr): 40
development rate with the number of fertilized eggs (0 hr) defined as 100% ([2]; 96 hr): 80%
development rate as compared with the ALA-unsupplemented control (in words) ([2]; number of fertilized eggs (0 hours) defined as 100%): elevate the development rate
